# According to patent USRE47141E1, “Methods of treating fibrosis, cancer and vascular injuries” (EWHA University—Industry Collaboration Foundation, priority 2010, dated 2018):
# Marks after values point to notes of the source that are not given here.
# Assays:
# MMTV/c-Neu mice = assay: Anti-metastatic effect on MMTV/c-Neu mice breast cancer model; format: in vivo; settings: for β-casein mRNA expression level in the lung: 43.6 mg/kg intraperitoneally every other day, Example 61 three weeks, Example 3 ten weeks
# Method: Anti-metastatic Effect on MMTV/c-Neu mice breast cancer model MMTV/c-Neu female transgenic mice were purchased from Jackson Laboratory (Bar Harbor, Me., USA). Animals were maintained in a temperature-controlled SPF room (22° C.) and supplied with food and water ad libitum. In Experiment 1, Example 61 (43.6 mg/kg) dissolved in saline was given to thirty two-week-old MMTV/c-Neu mice intraperitoneally every other day for three weeks. […] Mice were sacrificed at 24 h after the last dosing, and tissues of mammary tumor and lung were analyzed by hematoxylin and eosin (H&E) staining To analyse β-casein mRNA level in tissues of mammary tumor and lung, total RNAs were isolated from these tissues using TRIzol reagent (Invitrogen Corporation) and RNeasy Mini kit (Qiagen) according to the manufacturer's instruction. The cDNAs were synthesized from 2 μg of total RNAs using random primer (Invitrogen Corporation) by MMLV RTase (Invitrogen Corporation) for 1 h at 37° C. and subjected to PCR amplification using Taq polymerase (Promega) and following gene-specific primers: mouse GAPDH (forward) 5′-[…]-3′ and (reverse) 5′-[…]-3′, mouse β-casein (forward) 5′-[…]-3′ and (reverse) 5′-[…]-3′. Amplified DNA was analyzed by agarose gel electrophoresis.
# Activity of MMP-9 and MMP-2 in the primary mammary tumor was measured by gelatin zymography. Tumor tissues from mice (30 mg) was lysed in 500 μL RIPA buffer (50 mM Tris, 150 mM NaCl, 0.1% sodium dodecyl sulfate, 0.5% sodium deoxycholate, 1% NP-40, protease inhibitor without EDTA) for 10-20 min on ice. Lysates were cleared by centrifugation at 13000 rpm at 4° C. for 10 min. Protein content of supernatants was determined using Micro-BCA protein assay kit (Thermo Scientific). Loading samples were prepared by adding loading buffer (0.5 M Tris, pH 6.8, 50% glycerol, 10% SDS, and 1% bromophenol blue solution) into lysates containing 15 μg of total protein. Loading samples were heated at 60° C. for 5 min and separated by electrophoresis on 10% polyacrylamide gel containing 0.2% gelatin. Gel was washed twice with washing buffer [2.5% Triton-X100, 0.05 M Tris-HCl, pH 7.5, and 0.1 M NaCl] for 30 min at room temperature. […] Gel image was obtained using a densitometer LAS-3000 imager (FUJIFILM) in cybergreen mode.
# [1] = tested on: BALB/c 4T1 xenografted mice; assay: Anti-metastatic effect on BALB/c 4T1 xenografted mice model; format: in vivo; settings: Example 3 13.6 or 27.3 mg/kg orally BID, four weeks; Example 2 5, 10, 20, or 40 mg/kg orally; Example 61 43.6 mg/kg intraperitoneally every other day, 2.5 weeks
# Method: Female BALB/c mice were purchased from Orient Bio Inc. (Seoul, Korea). Animals were maintained in a temperature-controlled room (22° C.) and supplied with food and water ad libitum. 4T1 cells (1.2×10^4 cells) were suspended in PBS and implanted into the left #4 mammary fat pad of five to six-week-old female BALB/c mice (day 0). In Experiment 1, treatment was started after tumor implantation (day 0). […] In Experiment 2, treatment was started on day 4. […] In Experiment 3, treatment was started on day 4. […] In Experiment 4, 4T1 cells (1×10^4 cells) were suspended in PBS and implanted into the left #4 mammary fat pad of ten-week-old female BALB/c mice (day 0). Treatment was started on day 10. Example 61 (43.6 mg/kg) dissolved in saline was given to mice intraperitoneally every other day for 2.5 weeks. In all Experiments, mice were sacrificed at 24 to 72 h after the last dosing, and 15% India ink solution (Hardy Diagnostics) in PBS was immediately injected into the trachea. […] Number of metastatic nodule was counted on the surface of left lobe of lung, and picture of lung was taken with digital camera. The tumor size was measured using calipers, and the tumor volume was calculated by using the following equation: Tumor volume=(0.5236)×(width)^2×(length)
# Either vehicle buffer (4 mM HCl, 1 mg/mL BSA) or TGF-β1 (50 ng/mouse) in vehicle buffer was given to mice intravenously at 2 h before mice were sacrificed. Tumor tissues from mice were lysed in RIPA buffer [50 mM Tris, pH 7.5, 150 mM NaCl, 0.1% sodium dodecyl sulfate, 0.5% sodium deoxycholate, 1% NP-40, 1 mM NaF, 1 mM Na3VO4, 1 mM PMSF, a protease inhibitor cocktail (1 tablet of Roche Diagnostics GmbH protease inhibitor cocktail/10 mL) (Roche)] for 20 min on ice. Lysates were cleared by centrifugation at 13000 rpm at 4° C. for 20 min. Protein content of supernatants was determined using Micro-BCA (bicinchoninic acid) protein assay kit (Thermo Scientific). Lysates containing 20-50 μg total protein were separated by electrophoresis on polyacrylamide gel and then electrophoretically transferred to polyvinylidene difluoride transfer membranes (Millipore, Billerica, Mass., USA). Membranes were blocked with 5% BSA (Sigma-Aldrich) in PBS containing 0.5% Tween-20 (PBST) for 1 h and incubated overnight at 4° C. with one of following antibodies: anti-phospho-Smad2 (Millipore), anti-Smad2/3 (BD Transduction Laboratories, NJ, USA), or anti-β-actin (Sigma-Aldrich) in PBST containing 1% BSA. […] Bound antibodies were detected using Western Blotting Luminol Reagent (SantaCruz Biotechnology). Band intensities were analyzed using a densitometer LAS-3000 imager (FUJIFILM, Tokyo, Japan).
# [2] = tested on: bile duct-ligated (BDL) rats; assay: Anti-fibrotic effect on bile duct-ligated liver fibrosis model; format: in vivo; settings: for Body weight / Organ weight Liver / Organ weight Liver/Body / Organ weight Spleen / Organ weight Spleen/Body: mean ± S.E.
# ALK5 = ALK5 (Homo sapiens (Human), UniProt P36897); assay: Cell-free assay for inhibition of ALK5 kinase phosphorylation; format: biochemical; settings: read-out: IC50 on ALK5 kinase phosphorylation
# Sequence of ALK5 (P36897 34-503): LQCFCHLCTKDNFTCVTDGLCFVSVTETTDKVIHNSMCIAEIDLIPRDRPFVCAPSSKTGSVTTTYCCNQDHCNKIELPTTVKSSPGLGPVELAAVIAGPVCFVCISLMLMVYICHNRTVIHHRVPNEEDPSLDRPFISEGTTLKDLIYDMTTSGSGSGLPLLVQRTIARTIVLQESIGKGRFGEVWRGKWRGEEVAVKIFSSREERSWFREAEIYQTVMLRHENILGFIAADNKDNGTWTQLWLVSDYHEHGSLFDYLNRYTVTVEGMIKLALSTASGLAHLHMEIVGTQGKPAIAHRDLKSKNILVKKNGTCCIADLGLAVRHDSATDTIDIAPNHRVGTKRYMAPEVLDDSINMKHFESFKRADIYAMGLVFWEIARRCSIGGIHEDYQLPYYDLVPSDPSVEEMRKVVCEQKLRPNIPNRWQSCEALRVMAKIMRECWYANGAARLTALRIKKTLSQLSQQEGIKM
# Method: ALK5 protein was expressed in Sf9 insect cells as human recombinant GST-fusion protein using the baculovirus expression system. Expressed protein was purified by affinity chromatography using GSH-agarose (Sigma-Aldrich). Kinase assay was performed in 96-well FlashPlates™ from Perkin Elmer (Boston, Mass., USA) in a 50 μL reaction volume. The reaction cocktail was pipetted in four steps in the following order: 20 μL of assay buffer (standard buffer), 5 μL of ATP solution in H2O, 5 μL of each test compounds of formula (I) in 10% DMSO, 10 μL of GSK3 (14-27) (200 ng)/10 μL of ALK5 solution (1 ng) (premixed). The reaction cocktail contained 60 mM HEPES-NaOH, pH 7.5, 3 mM MgCl2, 3 mM MnCl2, 3 Na3VO4, 1.2 mM DTT, 50 μg/mL PEG20000, 1 μM [γ-^33P]-ATP (approximately 2.5×10^5 cpm per well), 200 ng/10 μL GSK3 (14-27), and 1 ng/10 μL ALK5. The reaction cocktail was incubated at 30° C. for 60 min. The reaction was stopped with 50 μL of 2% (v/v) H3PO4, and plates were aspirated and washed two times with 200 μL 0.9% (w/v) NaCl. Assay was performed with a BeckmanCoulter Biomek 2000 robotic system. Incorporation of ^33Pi (counting of “cpm”) was determined with a microplate scintillation counter (Microbeta, Wallac).
# Tramp C2 = settings: mice treated with murine prostate cancer cell line Tramp C2; cited from earlier work
# rats = settings: cited from earlier work
# [3] = tested on: SBE-luc and GFAP-luc mice immunized with MOG35-55; settings: cited from earlier work
# UUO rats = settings: cited from earlier work
# [4] = 43.6 mg/kg intraperitoneally every other day for ten weeks, gelatin zymography
# [5] = BDL rats, 21.8 mg/kg orally three times per week for four weeks
# [6] = BDL rats, 43.6 mg/kg orally three times per week for four weeks
# [7] = Sham-operated rats, 43.6 mg/kg orally three times per week for four weeks
# [8] = orally three times per week for four weeks, Example 2 5, 10, 20 mg/kg, Example 3 21.8, 43.6 mg/kg
# [9] = orally three times per week for four weeks, Western blot
smiles,measurement,setting,value
Cc1cccc(-c2[nH]c(CNc3ccccc3F)nc2-c2ccc3ncnn3c2)n1.Cl [Example 3],activity of MMP-2 in the primary mammary tumor,MMTV/c-Neu mice; [4],significantly inhibited
same,activity of MMP-9 in the primary mammary tumor,MMTV/c-Neu mice; [4],significantly inhibited
same,β-casein mRNA expression level in the lung,MMTV/c-Neu mice,significantly inhibited
same,number of metastastic nodules on the lung,[1],significantly reduced
same,Smad signaling in BDL rat liver (pSmad3),"[2]; 21.8 or 43.6 mg/kg orally three times per week for four weeks, Western blot",inhibited
same,Body weight,[2]; [5],340 ± 0.6 g
same,Organ weight Liver,[2]; [5],"16.4 ± 0.72**^,## g"
same,Organ weight Liver/Body,[2]; [5],"4.85 ± 0.26**^,## %"
same,Organ weight Spleen,[2]; [5],1.30 ± 0.07 g
same,Organ weight Spleen/Body,[2]; [5],"0.39 ± 0.03**^,## %"
same,Body weight,[2]; [6],335 ± 8.4 g
same,Organ weight Liver,[2]; [6],"16.1 ± 0.57**^,## g"
same,Organ weight Liver/Body,[2]; [6],"4.84 ± 0.26**^,## %"
same,Organ weight Spleen,[2]; [6],1.19 ± 0.09 g
same,Organ weight Spleen/Body,[2]; [6],"0.36 ± 0.03**^,## %"
same,Body weight,[2]; [7],354 ± 12.2 g
same,Organ weight Liver,[2]; [7],11.8 ± 0.71 g
same,Organ weight Liver/Body,[2]; [7],3.34 ± 0.12%
same,Organ weight Spleen,[2]; [7],0.81 ± 0.04 g
same,Organ weight Spleen/Body,[2]; [7],0.23 ± 0.01%
same,BDL-induced histological change,"[2]; liver, H&E staining",greatly abolished
same,body weight loss in BDL rats,[2]; [8],recovered
same,organ (liver and spleen) weight in BDL rats,[2]; [8],decreased
same,serum ALT in BDL rats,[2]; [8],improved
same,serum AST in BDL rats,[2]; [8],improved
same,fibronectin in BDL rat liver,[2]; [9],suppressed
same,vimentin in BDL rat liver,[2]; [9],suppressed
same,α-SMA in BDL rat liver,[2]; [9],suppressed
Cc1cccc(-c2[nH]c(CNc3cccc(C#N)c3)nc2-c2ccc3ncnn3c2)n1.Cl [Example 61],number of metastastic lesions in the lung,MMTV/c-Neu mice; 43.6 mg/kg intraperitoneally every other day for three weeks,significantly reduced
same,β-casein mRNA expression level in the lung,MMTV/c-Neu mice,significantly inhibited
same,number of metastastic nodules on the lung,[1],significantly reduced
"Cc1cccc(-c2[nH]c(Cc3cccc(C#N)c3)nc2-c2ccc3ncnn3c2)n1 [Example 145, 3-((4-([1,2,4]triazolo[1,5-a]pyridin-6-yl)-5-(6-methylpyridin-2-yl)-1H-imidazol-2-yl)methyl)benzonitrile]",IC50,ALK5,12.4 nM
"Cc1cccc(-c2[nH]c(Cc3cccc(C(N)=O)c3)nc2-c2ccc3ncnn3c2)n1 [Example 147, 3-((4-([1,2,4]triazolo[1,5-a]pyridin-6-yl)-5-(6-methylpyridin-2-yl)-1H-imidazol-2-yl)methyl)benzamide]",IC50,ALK5,40 nM
"Cc1cccc(-c2[nH]c(COc3ccccc3)nc2-c2ccc3ncnn3c2)n1 [Example 148, 6-(5-(6-methylpyridin-2-yl)-2-(phenoxymethyl)-1H-imidazol-4-yl)-[1,2,4]triazolo[1,5-a]pyridine]",IC50,ALK5,13.1 nM
"Cc1cccc(-c2[nH]c(COc3ccccc3F)nc2-c2ccc3ncnn3c2)n1 [Example 149, 6-(2-((2-fluorophenoxy)methyl)-5-(6-methylpyridin-2-yl)-1H-imidazol-4-yl)-[1,2,4]triazolo[1,5-a]pyridine]",IC50,ALK5,25.4 nM
"Cc1cccc(-c2[nH]c(COc3cccc(C#N)c3)nc2-c2ccc3ncnn3c2)n1 [Example 150, 3-((4-([1,2,4]triazolo[1,5-a]pyridin-6-yl)-5-(6-methylpyridin-2-yl)-1H-imidazol-2-yl)methoxy)benzonitrile]",IC50,ALK5,23.9 nM
"Cc1cccc(-c2[nH]c(COc3cccc(C(N)=O)c3)nc2-c2ccc3ncnn3c2)n1 [Example 151, 3-((4-([1,2,4]triazolo[1,5-a]pyridin-6-yl)-5-(6-methylpyridin-2-yl)-1H-imidazol-2-yl)methoxy)benzamide]",IC50,ALK5,22.5 nM
"Cc1cccc(-c2[nH]c(CSc3ccccc3)nc2-c2ccc3ncnn3c2)n1 [Example 152, 6-(5-(6-methylpyridin-2-yl)-2-(phenylthiomethyl)-1H-imidazol-4-yl)-[1,2,4]triazolo[1,5-a]pyridine]",IC50,ALK5,20.7 nM
Cc1cccc(-c2[nH]c(Cc3cccc(C(N)=O)c3)nc2-c2ccc3nccnc3c2)n1 [IN-1130],tumor volume,Tramp C2,dramatically reduces
same,penile curvature,rats,corrects
same,tunical fibrosis,rats,lessens
same,experimental autoimmune encephalomyelitis (EAE),[3],ameliorates
same,renal fibrosis induced by unilateral ureteral obstruction (UUO),UUO rats,effectively suppresses
